Assay results published in patent US9656971B2, “COMT inhibitors” (Hoffmann-La Roche Inc., priority 2012, dated 2017).
Counter-ions that a name gives are not always drawn.

What follows are molecules tested against T1, Rec. human COMT (Homo sapiens, UniProt P21964) (assay: COMT-Fluorescence Assay). Conditions: COMT-fluorescence assay, rec. human COMT 25 nM, 4-Nitrocatechol-Alexa488 200 nM, SAM 500 nM; read-out: IC50.
T1 sequence (P21964 1-271): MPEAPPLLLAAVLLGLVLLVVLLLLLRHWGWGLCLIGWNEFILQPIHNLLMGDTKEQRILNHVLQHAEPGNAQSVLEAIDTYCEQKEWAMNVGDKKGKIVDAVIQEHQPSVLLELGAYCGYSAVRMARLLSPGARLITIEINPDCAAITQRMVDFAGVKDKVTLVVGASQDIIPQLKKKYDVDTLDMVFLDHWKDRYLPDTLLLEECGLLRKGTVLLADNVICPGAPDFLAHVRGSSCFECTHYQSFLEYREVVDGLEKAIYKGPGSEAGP
Type: biochemical
Description: This intramolecular interaction is disturbed if the 4-Nitrocatechol is methylated. […] This increase of fluorescence intensity can be followed in a kinetic measurement. The slope in the linear range of the kinetic is calculated. An inhibitor compound decreases the slope.
Signal [rfu/min]=(rfu(end-point)−rfu(startpoint))/incubation_time_#2

| Structure (SMILES) | IC50 [nM] |
| --- | --- |
| O=c1[nH]cnc2c(O)cc(-c3cccc(CN4CCOCC4)c3)cc12 [Example 39, 8-Hydroxy-6-(3-(morpholinomethyl)phenyl)quinazolin-4(3H)-one 1:1 salt with trifluoroacetate] | 20 |
| O=c1[nH]cnc2c(O)cc(Br)c(C(F)(F)F)c12 [Example 41, 6-Bromo-8-hydroxy-5-(trifluoromethyl)quinazolin-4(3H)-one] | 160 |
| O=c1[nH]cnc2c(O)ccc(C(F)(F)F)c12 [Example 42, 8-Hydroxy-5-(trifluoromethyl)quinazolin-4(3H)-one] | 1030 |
| O=c1[nH]cnc2c(O)cc(-c3ccc(F)cc3)c(C(F)(F)F)c12 [Example 43, 6-(4-Fluorophenyl)-8-hydroxy-5-(trifluoromethyl)quinazolin-4(3H)-one] | 40 |
| O=c1[nH]cnc2c(O)cc(Br)c([N+](=O)[O-])c12 [Example 44, 6-Bromo-8-hydroxy-5-nitro-3H-quinazolin-4-one] | 110 |
| COCCn1nccc1-c1cc(O)c2nc[nH]c(=O)c2c1 [Example 45, 8-Hydroxy-6-(1-(2-methoxyethyl)-1H-pyrazol-5-yl)quinazolin-4(3H)-one] | 30 |
| COCc1nc(C)sc1-c1cc(O)c2nc[nH]c(=O)c2c1 [Example 46, 8-Hydroxy-6-(4-(methoxymethyl)-2-methylthiazol-5-yl)quinazolin-4(3H)-one] | 10 |
| COCCn1cc(-c2cc(O)c3nc[nH]c(=O)c3c2)cn1 [Example 47, 8-Hydroxy-6-(1-(2-methoxyethyl)-1H-pyrazol-4-yl)quinazolin-4(3H)-one] | 60 |
| CS(=O)(=O)c1ccc(Cl)c(-c2cc(O)c3nc[nH]c(=O)c3c2)c1 [Example 48, 6-(2-Chloro-5-methanesulfonyl-phenyl)-8-hydroxy-3H-quinazolin-4-one] | 50 |
| O=c1[nH]cnc2c(O)cc(-c3ccc(F)cc3)c(-c3ccccc3)c12 [Example 49, 6-(4-Fluorophenyl)-8-hydroxy-5-phenylquinazolin-4(3H)-one] | 20 |
| Cc1ccc(-c2c(-c3ccc(F)cc3)cc(O)c3nc[nH]c(=O)c23)cc1 [Example 50, 6-(4-Fluorophenyl)-8-hydroxy-5-p-tolylquinazolin-4(3H)-one] | 10 |
| Cc1ccc(-c2c(-c3ccc(F)cc3)c(Br)c(O)c3nc[nH]c(=O)c23)cc1 [Example 51, 7-bromo-6-(4-fluorophenyl)-8-hydroxy-5-p-tolylquinazolin-4(3H)-one] | 260 |
| CS(=O)(=O)c1cccc(-c2c(-c3ccc(F)cc3)cc(O)c3nc[nH]c(=O)c23)c1 [Example 52, 6-(4-Fluorophenyl)-8-hydroxy-5-(3-(methylsulfonyl)phenyl)quinazolin-4(3H)-one] | 10 |
| O=c1[nH]cnc2c(O)cc(-c3ccc(F)cc3)c(-c3cccc(C(F)(F)F)c3)c12 [Example 53, 6-(4-Fluorophenyl)-8-hydroxy-5-(3-(trifluoromethyl)phenyl)quinazolin-4(3H)-one] | 20 |
| N#Cc1c(-c2ccc(F)cc2)cc(O)c2nc[nH]c(=O)c12 [Example 54, 6-(4-Fluorophenyl)-8-hydroxy-4-oxo-3,4-dihydroquinazoline-5-carbonitrile] | 60 |
| CCN(CC)C(=O)c1ccc(-c2c(-c3ccc(F)cc3)cc(O)c3nc[nH]c(=O)c23)cc1 [Example 55, N,N-Diethyl-4-(6-(4-fluorophenyl)-8-hydroxy-4-oxo-3,4-dihydroquinazolin-5-yl)benzamide] | 10 |

| Structure (SMILES) | IC50 [nM] |
| --- | --- |
| O=c1[nH]cnc2c(O)cc(-c3ccc(F)cc3)c(-c3ccncc3)c12 [Example 56, 6-(4-Fluorophenyl)-8-hydroxy-5-(pyridin-4-yl)quinazolin-4(3H)-one] | 10 |
| CS(=O)(=O)c1ccc(-c2c(-c3ccc(F)cc3)cc(O)c3nc[nH]c(=O)c23)cc1 [Example 57, 6-(4-Fluorophenyl)-8-hydroxy-5-(4-(methylsulfonyl)phenyl)quinazolin-4(3H)-one] | 10 |
| Cc1cc(-c2c(-c3ccc(F)cc3)cc(O)c3nc[nH]c(=O)c23)ccn1 [Example 58, 6-(4-Fluorophenyl)-8-hydroxy-5-(2-methylpyridin-4-yl)quinazolin-4(3H)-one] | 10 |
| O=c1[nH]cnc2c(O)cc(-c3ccc(F)cc3)c(-c3ccnc(N4CCOCC4)c3)c12 [Example 59, 6-(4-Fluorophenyl)-8-hydroxy-5-(2-morpholinopyridin-4-yl)quinazolin-4(3H)-one] | 40 |
| CN(C)c1ccc(-c2cc(O)c3nc[nH]c(=O)c3c2)cn1 [Example 60, 6-(6-(Dimethylamino)pyridin-3-yl)-8-hydroxyquinazolin-4(3H)-one 1:1 salt with trifluoroacetate] | 20 |
| O=c1[nH]cnc2c(O)cc(-c3cccc(N4CCOCC4)n3)cc12 [Example 62, 8-Hydroxy-6-(6-morpholinopyridin-2-yl)quinazolin-4(3H)-one] | 10 |
| O=c1[nH]cnc2c(O)cc(-c3cccc(N4CCCC4)n3)cc12 [Example 63, 8-Hydroxy-6-(6-(pyrrolidin-1-yl)pyridin-2-yl)quinazolin-4(3H)-one] | 40 |
| N#Cc1ccc(-c2c(-c3ccc(F)cc3)cc(O)c3nc[nH]c(=O)c23)cc1 [Example 64, 4-[6-(4-Fluoro-phenyl)-8-hydroxy-4-oxo-3,4-dihydro-quinazolin-5-yl]-benzonitrile] | 10 |
| Cc1ccc(C(O)c2cc(O)c3nc[nH]c(=O)c3c2)cc1 (stereo not shown) [Example 65, 8-Hydroxy-6-(hydroxy(p-tolyl)methyl)quinazolin-4(3H)-one] | 4830 |
| Cc1ccc(C(=O)c2cc(O)c3nc[nH]c(=O)c3c2)cc1 [Example 66, 8-Hydroxy-6-(4-methylbenzoyl)quinazolin-4(3H)-one] | 100 |
| O=c1[nH]cnc2c(O)cc(C(O)c3ccccc3)cc12 (stereo not shown) [Example 67, 8-Hydroxy-6-(hydroxy(phenyl)methyl)quinazolin-4(3H)-one] | 7450 |
| O=C(c1ccccc1)c1cc(O)c2nc[nH]c(=O)c2c1 [Example 68, 6-Benzoyl-8-hydroxy-3H-quinazolin-4-one] | 60 |
| O=c1[nH]cnc2c(O)cc(C3CCOCC3)cc12 [Example 69, 8-Hydroxy-6-(tetrahydro-2H-pyran-4-yl)quinazolin-4(3H)-one 2,2,2-trifluoroacetate] | 1040 |
| O=c1[nH]cnc2c(O)cc(C3=CCOCC3)cc12 [Example 70, 6-(3,6-Dihydro-2H-pyran-4-yl)-8-hydroxyquinazolin-4(3H)-one] | 20 |
| Cc1cnc(-c2cc(O)c3nc[nH]c(=O)c3c2)s1 [Example 72, 8-Hydroxy-6-(5-methylthiazol-2-yl)quinazolin-4(3H)-one] | 30 |

Same assay, conditions: IC50, COMT-fluorescence assay, rec. human COMT 25 nM, 4-Nitrocatechol-Alexa488 200 nM, SAM 500 nM

| Structure (SMILES) | IC50 [nM] |
| --- | --- |
| CN1CCc2cc(-c3cc(O)c4nc[nH]c(=O)c4c3)ccc21 [Example 40, 8-Hydroxy-6-(1-methylindolin-5-yl)quinazolin-4(3H)-one 1:1 salt with trifluoroacetate] | 10 |
| CN1CC=C(c2c(-c3ccc(F)cc3)cc(O)c3nc[nH]c(=O)c23)CC1 [Example 61, 6-(4-Fluorophenyl)-8-hydroxy-5-(1-methyl-1,2,3,6-tetrahydropyridin-4-yl)quinazolin-4(3H)-one] | 130 |
| COCc1cccc(-c2cc(O)c3nc[nH]c(=O)c3c2)c1 [Example 71, 8-Hydroxy-6-(3-(methoxymethyl)phenyl)quinazolin-4(3H)-one] | 20 |
